{"source": "the NIST ThermoML archive (doi:10.1021/acs.jced.8b00601)", "assay": "activity coefficient (dimensionless); of the first substance listed, at infinite dilution; xn = mol fraction of the nth substance listed", "conditions": "101.33 kPa, Liquid, Chromatography, x1 = 0", "note": "Numbers after ± are expanded uncertainties.", "data": [{"compound": "ClCCCl", "note": "[1,2-dichloroethane] + O=S(=O)([N-]S(=O)(=O)C(F)(F)F)C(F)(F)F.O=S(=O)([N-]S(=O)(=O)C(F)(F)F)C(F)(F)F.O=S(=O)([N-]S(=O)(=O)C(F)(F)F)C(F)(F)F.c1ccc2cc(-n3cc[n+](Cc4cc(C[n+]5ccn(-c6ccc7ccccc7c6)c5)cc(C[n+]5ccn(-c6ccc7ccccc7c6)c5)c4)c3)ccc2c1", "values": [{"measurement": "activity coefficient", "setting": "313 K", "value": "0.758 ± 0.079"}, {"measurement": "activity coefficient", "setting": "323 K", "value": "0.738 ± 0.077"}, {"measurement": "activity coefficient", "setting": "333 K", "value": "0.677 ± 0.071"}, {"measurement": "activity coefficient", "setting": "343 K", "value": "0.679 ± 0.071"}]}, {"compound": "Cc1ccccc1C", "note": "[1,2-dimethylbenzene] + O=S(=O)([N-]S(=O)(=O)C(F)(F)F)C(F)(F)F.O=S(=O)([N-]S(=O)(=O)C(F)(F)F)C(F)(F)F.O=S(=O)([N-]S(=O)(=O)C(F)(F)F)C(F)(F)F.c1ccc2cc(-n3cc[n+](Cc4cc(C[n+]5ccn(-c6ccc7ccccc7c6)c5)cc(C[n+]5ccn(-c6ccc7ccccc7c6)c5)c4)c3)ccc2c1", "values": [{"measurement": "activity coefficient", "setting": "313 K", "value": "3.35 ± 0.41"}, {"measurement": "activity coefficient", "setting": "323 K", "value": "2.25 ± 0.3"}, {"measurement": "activity coefficient", "setting": "333 K", "value": "1.54 ± 0.2"}, {"measurement": "activity coefficient", "setting": "343 K", "value": "1.04 ± 0.14"}]}, {"compound": "Cc1cccc(C)c1", "note": "[1,3-dimethylbenzene] + O=S(=O)([N-]S(=O)(=O)C(F)(F)F)C(F)(F)F.O=S(=O)([N-]S(=O)(=O)C(F)(F)F)C(F)(F)F.O=S(=O)([N-]S(=O)(=O)C(F)(F)F)C(F)(F)F.c1ccc2cc(-n3cc[n+](Cc4cc(C[n+]5ccn(-c6ccc7ccccc7c6)c5)cc(C[n+]5ccn(-c6ccc7ccccc7c6)c5)c4)c3)ccc2c1", "values": [{"measurement": "activity coefficient", "setting": "313 K", "value": "3.42 ± 0.42"}, {"measurement": "activity coefficient", "setting": "323 K", "value": "2.31 ± 0.31"}, {"measurement": "activity coefficient", "setting": "333 K", "value": "1.52 ± 0.19"}, {"measurement": "activity coefficient", "setting": "343 K", "value": "1.26 ± 0.14"}]}, {"compound": "Cc1ccc(C)cc1", "note": "[1,4-dimethylbenzene] + O=S(=O)([N-]S(=O)(=O)C(F)(F)F)C(F)(F)F.O=S(=O)([N-]S(=O)(=O)C(F)(F)F)C(F)(F)F.O=S(=O)([N-]S(=O)(=O)C(F)(F)F)C(F)(F)F.c1ccc2cc(-n3cc[n+](Cc4cc(C[n+]5ccn(-c6ccc7ccccc7c6)c5)cc(C[n+]5ccn(-c6ccc7ccccc7c6)c5)c4)c3)ccc2c1", "values": [{"measurement": "activity coefficient", "setting": "313 K", "value": "4.47 ± 0.56"}, {"measurement": "activity coefficient", "setting": "323 K", "value": "2.94 ± 0.39"}, {"measurement": "activity coefficient", "setting": "333 K", "value": "2.09 ± 0.26"}, {"measurement": "activity coefficient", "setting": "343 K", "value": "1.51 ± 0.2"}]}, {"compound": "C1COCCO1", "note": "[1,4-dioxane] + O=S(=O)([N-]S(=O)(=O)C(F)(F)F)C(F)(F)F.O=S(=O)([N-]S(=O)(=O)C(F)(F)F)C(F)(F)F.O=S(=O)([N-]S(=O)(=O)C(F)(F)F)C(F)(F)F.c1ccc2cc(-n3cc[n+](Cc4cc(C[n+]5ccn(-c6ccc7ccccc7c6)c5)cc(C[n+]5ccn(-c6ccc7ccccc7c6)c5)c4)c3)ccc2c1", "values": [{"measurement": "activity coefficient", "setting": "313 K", "value": "0.481 ± 0.06"}, {"measurement": "activity coefficient", "setting": "323 K", "value": "0.34 ± 0.047"}, {"measurement": "activity coefficient", "setting": "333 K", "value": "0.276 ± 0.038"}, {"measurement": "activity coefficient", "setting": "343 K", "value": "0.262 ± 0.037"}]}, {"compound": "CC#N", "note": "[acetonitrile] + O=S(=O)([N-]S(=O)(=O)C(F)(F)F)C(F)(F)F.O=S(=O)([N-]S(=O)(=O)C(F)(F)F)C(F)(F)F.O=S(=O)([N-]S(=O)(=O)C(F)(F)F)C(F)(F)F.c1ccc2cc(-n3cc[n+](Cc4cc(C[n+]5ccn(-c6ccc7ccccc7c6)c5)cc(C[n+]5ccn(-c6ccc7ccccc7c6)c5)c4)c3)ccc2c1", "values": [{"measurement": "activity coefficient", "setting": "313 K", "value": "0.263 ± 0.038"}, {"measurement": "activity coefficient", "setting": "323 K", "value": "0.217 ± 0.035"}, {"measurement": "activity coefficient", "setting": "333 K", "value": "0.189 ± 0.033"}, {"measurement": "activity coefficient", "setting": "343 K", "value": "0.181 ± 0.032"}]}, {"compound": "O=Cc1ccccc1", "note": "[benzaldehyde] + O=S(=O)([N-]S(=O)(=O)C(F)(F)F)C(F)(F)F.O=S(=O)([N-]S(=O)(=O)C(F)(F)F)C(F)(F)F.O=S(=O)([N-]S(=O)(=O)C(F)(F)F)C(F)(F)F.c1ccc2cc(-n3cc[n+](Cc4cc(C[n+]5ccn(-c6ccc7ccccc7c6)c5)cc(C[n+]5ccn(-c6ccc7ccccc7c6)c5)c4)c3)ccc2c1", "values": [{"measurement": "activity coefficient", "setting": "313 K", "value": "1 ± 0.1"}, {"measurement": "activity coefficient", "setting": "323 K", "value": "0.999 ± 0.1"}, {"measurement": "activity coefficient", "setting": "333 K", "value": "1 ± 0.1"}, {"measurement": "activity coefficient", "setting": "343 K", "value": "1 ± 0.1"}]}, {"compound": "c1ccccc1", "note": "[benzene] + O=S(=O)([N-]S(=O)(=O)C(F)(F)F)C(F)(F)F.O=S(=O)([N-]S(=O)(=O)C(F)(F)F)C(F)(F)F.O=S(=O)([N-]S(=O)(=O)C(F)(F)F)C(F)(F)F.c1ccc2cc(-n3cc[n+](Cc4cc(C[n+]5ccn(-c6ccc7ccccc7c6)c5)cc(C[n+]5ccn(-c6ccc7ccccc7c6)c5)c4)c3)ccc2c1", "values": [{"measurement": "activity coefficient", "setting": "313 K", "value": "2.58 ± 0.3"}, {"measurement": "activity coefficient", "setting": "323 K", "value": "1.88 ± 0.23"}, {"measurement": "activity coefficient", "setting": "333 K", "value": "1.35 ± 0.17"}, {"measurement": "activity coefficient", "setting": "343 K", "value": "0.994 ± 0.12"}]}, {"compound": "CCCC=O", "note": "[butanal] + O=S(=O)([N-]S(=O)(=O)C(F)(F)F)C(F)(F)F.O=S(=O)([N-]S(=O)(=O)C(F)(F)F)C(F)(F)F.O=S(=O)([N-]S(=O)(=O)C(F)(F)F)C(F)(F)F.c1ccc2cc(-n3cc[n+](Cc4cc(C[n+]5ccn(-c6ccc7ccccc7c6)c5)cc(C[n+]5ccn(-c6ccc7ccccc7c6)c5)c4)c3)ccc2c1", "values": [{"measurement": "activity coefficient", "setting": "313 K", "value": "0.425 ± 0.049"}, {"measurement": "activity coefficient", "setting": "323 K", "value": "0.415 ± 0.048"}, {"measurement": "activity coefficient", "setting": "333 K", "value": "0.396 ± 0.047"}, {"measurement": "activity coefficient", "setting": "343 K", "value": "0.324 ± 0.043"}]}, {"compound": "C1CCCCC1", "note": "[cyclohexane] + O=S(=O)([N-]S(=O)(=O)C(F)(F)F)C(F)(F)F.O=S(=O)([N-]S(=O)(=O)C(F)(F)F)C(F)(F)F.O=S(=O)([N-]S(=O)(=O)C(F)(F)F)C(F)(F)F.c1ccc2cc(-n3cc[n+](Cc4cc(C[n+]5ccn(-c6ccc7ccccc7c6)c5)cc(C[n+]5ccn(-c6ccc7ccccc7c6)c5)c4)c3)ccc2c1", "values": [{"measurement": "activity coefficient", "setting": "313 K", "value": "11.7 ± 1.3"}, {"measurement": "activity coefficient", "setting": "323 K", "value": "9.16 ± 1"}, {"measurement": "activity coefficient", "setting": "333 K", "value": "8.09 ± 0.9"}, {"measurement": "activity coefficient", "setting": "343 K", "value": "6.25 ± 0.75"}]}, {"compound": "O=C1CCCCC1", "note": "[cyclohexanone] + O=S(=O)([N-]S(=O)(=O)C(F)(F)F)C(F)(F)F.O=S(=O)([N-]S(=O)(=O)C(F)(F)F)C(F)(F)F.O=S(=O)([N-]S(=O)(=O)C(F)(F)F)C(F)(F)F.c1ccc2cc(-n3cc[n+](Cc4cc(C[n+]5ccn(-c6ccc7ccccc7c6)c5)cc(C[n+]5ccn(-c6ccc7ccccc7c6)c5)c4)c3)ccc2c1", "values": [{"measurement": "activity coefficient", "setting": "313 K", "value": "1 ± 0.1"}, {"measurement": "activity coefficient", "setting": "323 K", "value": "0.999 ± 0.1"}, {"measurement": "activity coefficient", "setting": "333 K", "value": "1 ± 0.1"}, {"measurement": "activity coefficient", "setting": "343 K", "value": "1 ± 0.1"}]}, {"compound": "O=C1CCCC1", "note": "[cyclopentanone] + O=S(=O)([N-]S(=O)(=O)C(F)(F)F)C(F)(F)F.O=S(=O)([N-]S(=O)(=O)C(F)(F)F)C(F)(F)F.O=S(=O)([N-]S(=O)(=O)C(F)(F)F)C(F)(F)F.c1ccc2cc(-n3cc[n+](Cc4cc(C[n+]5ccn(-c6ccc7ccccc7c6)c5)cc(C[n+]5ccn(-c6ccc7ccccc7c6)c5)c4)c3)ccc2c1", "values": [{"measurement": "activity coefficient", "setting": "313 K", "value": "0.303 ± 0.039"}, {"measurement": "activity coefficient", "setting": "323 K", "value": "0.296 ± 0.04"}, {"measurement": "activity coefficient", "setting": "333 K", "value": "0.22 ± 0.035"}, {"measurement": "activity coefficient", "setting": "343 K", "value": "0.211 ± 0.034"}]}, {"compound": "CCO", "note": "[ethanol] + O=S(=O)([N-]S(=O)(=O)C(F)(F)F)C(F)(F)F.O=S(=O)([N-]S(=O)(=O)C(F)(F)F)C(F)(F)F.O=S(=O)([N-]S(=O)(=O)C(F)(F)F)C(F)(F)F.c1ccc2cc(-n3cc[n+](Cc4cc(C[n+]5ccn(-c6ccc7ccccc7c6)c5)cc(C[n+]5ccn(-c6ccc7ccccc7c6)c5)c4)c3)ccc2c1", "values": [{"measurement": "activity coefficient", "setting": "313 K", "value": "0.927 ± 0.1"}, {"measurement": "activity coefficient", "setting": "323 K", "value": "0.724 ± 0.082"}, {"measurement": "activity coefficient", "setting": "333 K", "value": "0.611 ± 0.066"}, {"measurement": "activity coefficient", "setting": "343 K", "value": "0.606 ± 0.064"}]}, {"compound": "CCOC(C)=O", "note": "[ethyl acetate] + O=S(=O)([N-]S(=O)(=O)C(F)(F)F)C(F)(F)F.O=S(=O)([N-]S(=O)(=O)C(F)(F)F)C(F)(F)F.O=S(=O)([N-]S(=O)(=O)C(F)(F)F)C(F)(F)F.c1ccc2cc(-n3cc[n+](Cc4cc(C[n+]5ccn(-c6ccc7ccccc7c6)c5)cc(C[n+]5ccn(-c6ccc7ccccc7c6)c5)c4)c3)ccc2c1", "values": [{"measurement": "activity coefficient", "setting": "313 K", "value": "1.02 ± 0.11"}, {"measurement": "activity coefficient", "setting": "323 K", "value": "0.776 ± 0.093"}, {"measurement": "activity coefficient", "setting": "333 K", "value": "0.544 ± 0.068"}, {"measurement": "activity coefficient", "setting": "343 K", "value": "0.443 ± 0.054"}]}, {"compound": "CCCCCCC", "note": "[heptane] + O=S(=O)([N-]S(=O)(=O)C(F)(F)F)C(F)(F)F.O=S(=O)([N-]S(=O)(=O)C(F)(F)F)C(F)(F)F.O=S(=O)([N-]S(=O)(=O)C(F)(F)F)C(F)(F)F.c1ccc2cc(-n3cc[n+](Cc4cc(C[n+]5ccn(-c6ccc7ccccc7c6)c5)cc(C[n+]5ccn(-c6ccc7ccccc7c6)c5)c4)c3)ccc2c1", "values": [{"measurement": "activity coefficient", "setting": "313 K", "value": "12.2 ± 1.3"}, {"measurement": "activity coefficient", "setting": "323 K", "value": "10.1 ± 1.2"}, {"measurement": "activity coefficient", "setting": "333 K", "value": "6.77 ± 0.82"}, {"measurement": "activity coefficient", "setting": "343 K", "value": "6.03 ± 0.65"}]}]}
